PubChem BioAssay AID330 (DTP/NCI, 2004)
Values joined by “and” are separate entries in the source; they are usually repeats but may differ in a detail not shown here. Identical values can stand only once. Inconclusive results and toxic doses are left out. Rule for the calls: active = survival T/C of 150% or more; inactive = T/C below 125% in these data.

Test system: P388 leukemia ip, CD2F1 mice, survival T/C
Assay: NCI In Vivo Anticancer Drug Screen. Data for tumor model P388 Leukemia (intraperitoneal) in CD2F1 (CDF1) mice
Conditions: endpoint: median survival time, higher = longer survival
Outline: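 Mice carrying the transplanted tumor received test compound or vehicle. Survival was recorded in each group, and the value is the treated-group measurement divided by that of the vehicle-treated control group.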

[1] = dose: 50.0 mg/kg/injection, schedule: Q01DX005 (ip), vehicle: Klucel (hydroxypropylcellulose) (HPC)
[2] = dose: 100.0 mg/kg/injection, schedule: Q01DX005 (ip), vehicle: Klucel (hydroxypropylcellulose) (HPC)
[3] = dose: 200.0 mg/kg/injection, schedule: Q01DX005 (ip), vehicle: Klucel (hydroxypropylcellulose) (HPC)
[4] = dose: 50.0 mg/kg/injection, schedule: Q04DX003 (ip), vehicle: saline
[5] = dose: 25.0 mg/kg/injection, schedule: Q01DX009 (ip), vehicle: saline
[6] = dose: 50.0 mg/kg/injection, schedule: Q01DX009 (ip), vehicle: saline
[7] = dose: 25.0 mg/kg/injection, schedule: Q01DX001 (ip), vehicle: saline with Tween-80
[8] = dose: 50.0 mg/kg/injection, schedule: Q01DX001 (ip), vehicle: saline with Tween-80
[9] = dose: 100.0 mg/kg/injection, schedule: Q01DX001 (ip), vehicle: saline with Tween-80
[10] = dose: 50.0 mg/kg/injection, schedule: Q01DX005 (ip), vehicle: saline
[11] = dose: 100.0 mg/kg/injection, schedule: Q01DX005 (ip), vehicle: saline
[12] = dose: 200.0 mg/kg/injection, schedule: Q01DX005 (ip), vehicle: saline
[13] = dose: 12.5 mg/kg/injection, schedule: Q01DX009 (ip), vehicle: saline
[14] = dose: 100.0 mg/kg/injection, schedule: Q01DX009 (ip), vehicle: saline with Tween-80

Measured: T/C

Clc1cccc2nnc(Br)n12
inactive: dose: 50.0 mg/kg/injection, schedule: Q01DX001 (ip), vehicle: Klucel (hydroxypropylcellulose) (HPC) 98 % of control | dose: 100.0 mg/kg/injection, schedule: Q01DX001 (ip), vehicle: Klucel (hydroxypropylcellulose) (HPC) 102 % of control | dose: 200.0 mg/kg/injection, schedule: Q01DX001 (ip), vehicle: Klucel (hydroxypropylcellulose) (HPC) 111 % of control

Cc1ccc(S(=O)(=O)OC2C(OCc3ccccc3)C(OCc3ccccc3)C3CON(C)C32)cc1 (stereo unspecified)
inactive: [1] 86 % of control | [2] 89 % of control | [3] 92 % of control

OCc1ccc(OCc2ccccc2)c(OCc2ccccc2)c1
inactive: [4] 98 % of control | dose: 100.0 mg/kg/injection, schedule: Q04DX003 (ip), vehicle: saline 98 % of control | dose: 200.0 mg/kg/injection, schedule: Q04DX003 (ip), vehicle: saline 104 % of control | dose: 400.0 mg/kg/injection, schedule: Q04DX003 (ip), vehicle: saline 98 % of control

CN1C2CCCC1CC1(C2)NC(=O)NC1=O (stereo unspecified)
inactive: dose: 50.0 mg/kg/injection, schedule: Q01DX009 (ip), vehicle: water 99 % of control | dose: 100.0 mg/kg/injection, schedule: Q01DX009 (ip), vehicle: water 100 % of control

S=C(NCCc1ccccc1)N/N=C/c1ccc(Cl)cc1
inactive: [1] 104 % of control | [2] 100 % of control

CC(=Nc1ccc(Cl)cc1N)c1c(O)cc(C)oc1=O
inactive: dose: 60.0 mg/kg/injection, schedule: Q01DX005 (ip), vehicle: Klucel (hydroxypropylcellulose) (HPC) 91 % of control | dose: 120.0 mg/kg/injection, schedule: Q01DX005 (ip), vehicle: Klucel (hydroxypropylcellulose) (HPC) 96 % of control

O=C(O)CCCC(=O)c1ccccc1
inactive: [5] 105 % of control | [6] 100 % of control | dose: 100.0 mg/kg/injection, schedule: Q01DX009 (ip), vehicle: saline 101 % of control | dose: 200.0 mg/kg/injection, schedule: Q01DX009 (ip), vehicle: saline 108 % of control

Cc1ccc(-c2n[nH]c(=O)c(C#N)c2-c2ccc(C)cc2)cc1
inactive: dose: 100.0 mg/kg/injection, schedule: Q04DX002 (ip), vehicle: saline with Tween-80 88 % of control | dose: 400.0 mg/kg/injection, schedule: Q04DX002 (ip), vehicle: saline with Tween-80 88 % of control

COC(=O)CC(=O)C(C(=O)OC)C(CCc1ccccc1)C(C(=O)CC(=O)OC)C(=O)OC (stereo unspecified)
inactive: [7] 97 % of control | [8] 94 % of control | [9] 94 % of control

CC(C)(NC(=O)OC12CC3CC(CC(C3)C1)C2)C(=O)O
inactive: dose: 60.0 mg/kg/injection, schedule: Q01DX005 (ip), vehicle: saline with Tween-80 109 % of control | dose: 120.0 mg/kg/injection, schedule: Q01DX005 (ip), vehicle: saline with Tween-80 104 % of control | dose: 240.0 mg/kg/injection, schedule: Q01DX005 (ip), vehicle: saline with Tween-80 98 % of control

CN1C(=O)CC([Se]c2ccccc2)C1=O (stereo unspecified)
inactive: dose: 6.25 mg/kg/injection, schedule: Q04DX003 (ip), vehicle: Klucel (hydroxypropylcellulose) (HPC) 107 % of control and 97 % of control | dose: 12.5 mg/kg/injection, schedule: Q04DX003 (ip), vehicle: Klucel (hydroxypropylcellulose) (HPC) 103 % of control and 104 % of control | dose: 25.0 mg/kg/injection, schedule: Q04DX003 (ip), vehicle: Klucel (hydroxypropylcellulose) (HPC) 99 % of control and 105 % of control | dose: 50.0 mg/kg/injection, schedule: Q04DX003 (ip), vehicle: Klucel (hydroxypropylcellulose) (HPC) 100 % of control | dose: 100.0 mg/kg/injection, schedule: Q04DX003 (ip), vehicle: Klucel (hydroxypropylcellulose) (HPC) 105 % of control

CC(=O)NC1C(Nc2ccc(S(=O)(=O)Nc3ccnn3-c3ccccc3)cc2)OC(CO)C(O)C1O (stereo unspecified)
inactive: [10] 108 % of control | [11] 100 % of control | [12] 106 % of control

CCN1CC2(COC)C(O)CC(OC)C34C5CC6(O)C(O)C5C(O)(C(O)C6OC)C(C(OC)C23)C14 (stereo unspecified)
inactive: dose: 25.0 mg/kg/injection, schedule: Q01DX005 (ip), vehicle: saline 114 % of control | [10] 102 % of control | [11] 107 % of control | [12] 104 % of control

COc1ccc(C[n+]2ccccc2C#N)cc1OC
inactive: [1] 103 % of control | [2] 107 % of control

CC(C)COCCCN
inactive: [13] 100 % of control | dose: 12.5 mg/kg/injection, schedule: Q04DX003 (ip), vehicle: saline 91 % of control | [5] 100 % of control | dose: 25.0 mg/kg/injection, schedule: Q04DX003 (ip), vehicle: saline 100 % of control | [6] 100 % of control | [4] 91 % of control

Nc1ncnc2c1ncn2CC(O)CCl (stereo unspecified)
inactive: [1] 100 % of control | [2] 99 % of control | [3] 100 % of control

CCC(O)(c1ccccc1)C(O)c1ccccc1 (stereo unspecified)
inactive: dose: 25.0 mg/kg/injection, schedule: Q01DX009 (ip), vehicle: Klucel (hydroxypropylcellulose) (HPC) 98 % of control | dose: 50.0 mg/kg/injection, schedule: Q01DX009 (ip), vehicle: Klucel (hydroxypropylcellulose) (HPC) 98 % of control | dose: 50.0 mg/kg/injection, schedule: Q01DX009 (ip), vehicle: saline + alcohol 102 % of control and 124 % of control | dose: 100.0 mg/kg/injection, schedule: Q01DX009 (ip), vehicle: Klucel (hydroxypropylcellulose) (HPC) 97 % of control | dose: 100.0 mg/kg/injection, schedule: Q01DX009 (ip), vehicle: saline + alcohol 99 % of control and 123 % of control | dose: 200.0 mg/kg/injection, schedule: Q01DX009 (ip), vehicle: Klucel (hydroxypropylcellulose) (HPC) 88 % of control | dose: 200.0 mg/kg/injection, schedule: Q01DX009 (ip), vehicle: saline + alcohol 98 % of control | dose: 400.0 mg/kg/injection, schedule: Q01DX009 (ip), vehicle: Klucel (hydroxypropylcellulose) (HPC) 96 % of control

CC1CCC(OC(=O)N(CCCl)N=O)CC1 (stereo unspecified)
inactive: dose: 3.12 mg/kg/injection, schedule: Q01DX001 (ip), vehicle: saline with Tween-80 100 % of control | dose: 6.25 mg/kg/injection, schedule: Q01DX001 (ip), vehicle: saline with Tween-80 108 % of control | dose: 12.5 mg/kg/injection, schedule: Q01DX001 (ip), vehicle: saline with Tween-80 111 % of control | [7] 118 % of control | [8] 105 % of control | [9] 114 % of control and 86 % of control | dose: 150.0 mg/kg/injection, schedule: Q01DX001 (ip), vehicle: saline with Tween-80 100 % of control

CCCCC1C=CC2C(N1)N2C#N (stereo unspecified)
inactive: dose: 6.25 mg/kg/injection, schedule: Q01DX009 (ip), vehicle: saline 102 % of control | [13] 99 % of control | [5] 102 % of control | [14] 86 % of control

COc1cc2c(cc1C(C)c1ccc(OCC(=O)O)cc1)OCO2 (stereo unspecified)
inactive: dose: 50.0 mg/kg/injection, schedule: Q01DX005 (ip), vehicle: distilled water + Tween-80 96 % of control | dose: 100.0 mg/kg/injection, schedule: Q01DX005 (ip), vehicle: distilled water + Tween-80 105 % of control | dose: 200.0 mg/kg/injection, schedule: Q01DX005 (ip), vehicle: distilled water + Tween-80 100 % of control

O=C(Nc1ccc(Cl)cc1)OCCSc1nc2ccccc2s1
inactive: dose: 50.0 mg/kg/injection, schedule: Q01DX009 (ip), vehicle: saline with Tween-80 102 % of control | [14] 105 % of control | dose: 200.0 mg/kg/injection, schedule: Q01DX009 (ip), vehicle: saline with Tween-80 93 % of control
